For 1 compound, Cancellation task percentile results are on record in US20130184316A1, “METHODS FOR DIAGNOSING AND TREATING CONCUSSIVE DISORDERS” (priority 2010, published 2013).

This assay concerns subject with PCS. In words: Cancellation test, Wechsler Adult Intelligence Scale 4th edition. Format: in vivo, human. As for the experimental part:
A single subject, prospective, double blind, placebo controlled trial of 4AP was then conducted in this individual. IRB approvals were obtained from all participating institutions and Subject gave written informed consent for all parts of the study. After a 4-week medication washout period, the Subject was randomly assigned a week's course of placebo, followed by a weeklong medication washout period, followed by another week on 4-AP (10 mg twice daily). Based on the medication half-life, a one week washout period was presumed to be sufficient. Subject and assessors were blinded to treatment allocation.
Measurements conducted at identical times at baseline and on each of the subsequent 3 weeks of the study included: • Balance and mobility assessed by Hi-Mat test (Arch. Phys. Med. Rehabil. 2006, 87(3), 437-442; hereby incorporated by reference in its entirety). • Subjective symptom assessment using the Rivermead Post-Concussion Questionnaire (Clin. Rehabil. 2005, 19(8), 878-887; hereby incorporated by reference in its entirety). • Neuropsychological assessment, consisting of the digit span and cancellation tests from the Wechsler Adult Intelligence Scale, 4th edition (Coalson, D. L., Engi-Raiford, S. Wechsler Adult Intelligence Scale, 4th Ed., in Technical and Interpretive Manual, 4th Ed., San Antonio: Pearson (2008); hereby incorporated by reference in its entirety), the California Verbal Learning Test II (CVLT) (Delis, D. C., Kramer, J. H., Kaplan, E., Ober, B. A. in CVLT-II Manual, San Antonio: The Psychological Corporation (2000); hereby incorporated by reference in its entirety), the Verbal Fluency Test (Connors Continuous Performance Test Computer II Program Version 5 Users Manual, Toronto: Multi-Health Systems, Inc. (2002); hereby incorporated by reference in its entirety), and the Connors Continuous Performance Test (J. Nervous Ment. Dis. 1985, 173(6), 353-357; hereby incorporated by reference in its entirety). • Videonystagmography (VNG) and rotary chair (RC) vestibular testing […]

Structures are written as SMILES.

`Nc1ccncc1` [4-AP, 4-Amino pyridine]: the Cancellation task percentile runs as follows: (session 4 Active: blinded, one week on 4-AP 10 mg twice daily, baseline 37, placebo 37, washout 37) 37 percentile; (session 5 1st Open: open-label 4AP 10 mg twice daily, 5 weeks after formal study) 75 percentile; (session 6 2nd Open: open-label 4AP 10 mg twice daily, 9 weeks after formal study) 84 percentile.
